From patent US12679832B2, “Compounds and their uses as CD38 inhibitors” (Nanjing Immunophage Biotech Co., Ltd., priority 2021, dated 2026) come the findings set out here.

The experiment deals with T1, hCD38 Enzyme (Homo sapiens, UniProt P28907).
T1 construct: purchased Sino Biological Inc 10818-H08H
T1 sequence (P28907 43-300 limits assumed): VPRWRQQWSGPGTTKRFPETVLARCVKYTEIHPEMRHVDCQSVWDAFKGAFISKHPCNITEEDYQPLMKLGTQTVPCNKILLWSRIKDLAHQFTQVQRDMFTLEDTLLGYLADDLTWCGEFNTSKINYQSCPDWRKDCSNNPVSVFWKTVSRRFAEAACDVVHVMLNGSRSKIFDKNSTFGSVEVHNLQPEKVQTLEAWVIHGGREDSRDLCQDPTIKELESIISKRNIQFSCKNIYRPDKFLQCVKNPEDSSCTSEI
The experiment can be described thus: CD38 hydrolase enzymatic assay. The experiment is classed as biochemical. The settings on record: rhCD38, ε-NAD substrate, 25° C., point reading time 20 mins; read-out: hCD38 Enzyme inhibition IC50. How it is done: Also, a blank sample was prepared with 50 μl of sucrose buffer and no test compounds.
The dynamic reading was performed at 25° C. with excitation light of 300 nm and emission light of 410 nm on the enzyme marker by contacting the above-prepared rhCD38 enzyme working fluid and the above-prepared solutions of the test compounds disclosed herein or the solution of the control. The readings were recorded for a total of 1 hour, and the data were analyzed with the point reading time of 20 mins.
Fluorescence was recorded by a microplate reader. Individual excel files containing fluorescence data were exported and the results were plotted against various drug concentrations and analyzed in GraphPad Prism 7.0 for concentration curve generation.

Where only a bound is given, the exact number is not on record here.

Turning to `CO[C@H]1CC[C@H](NC(=O)c2cc(-n3ccnc3)cc(C)n2)CC1` [compound 50, 4-(1H-imidazol-1-yl)-N-((1r,4r)-4-methoxycyclohexyl)-6-methylpicolinamide], the IC50 is > 10 µM.
`CO[C@H]1CC[C@H](NC(=O)c2cc(Cl)cc(-n3ccnc3)n2)CC1` [compound 51, 4-chloro-6-(1H-imidazol-1-yl)-N-((1r,4r)-4-methoxycyclohexyl) picolinamide]: the IC50 was found to be 0.009 µM.
On to `CO[C@H]1CC[C@H](NC(=O)c2cc(C)cc(-n3ccnc3)n2)CC1` [compound 52, 6-(1H-imidazol-1-yl)-N-((1r,4r)-4-methoxycyclohexyl)-4-methylpicolinamide], for which the IC50 is 0.055 µM.
On to `CO[C@H]1CC[C@H](NC(=O)c2cc(C(F)(F)F)cc(-n3ccnc3)n2)CC1` [compound 53, 6-(1H-imidazol-1-yl)-N-((1r,4r)-4-methoxycyclohexyl)-4-(trifluoromethyl) picolinamide], for which the IC50 worked out at 0.036 µM.
Regarding `CO[C@H]1CC[C@H](NC(=O)c2cc(-n3ccnn3)cc3cc[nH]c23)CC1` [compound 54, N-((1r,4r)-4-methoxycyclohexyl)-5-(1H-1,2,3-triazol-1-yl)-1H-indole-7-carboxamide], the IC50 came to 6.85 µM.
To `CO[C@H]1CC[C@H](NC(=O)c2cc(-n3nccn3)cc3cc[nH]c23)CC1` [compound 55, N-((1r,4r)-4-methoxycyclohexyl)-5-(2H-1,2,3-triazol-2-yl)-1H-indole-7-carboxamide] belongs > 10 µM; to `CO[C@H]1CC[C@H](NC(=O)c2cc(-n3ccnc3)cnc2N)CC1` [compound 59, 2-amino-5-(1H-imidazol-1-yl)-N-((1r,4r)-4-methoxycyclohexyl) nicotinamide], > 10 µM; to `CO[C@H]1CC[C@H](NC(=O)c2nc(-n3ccnc3)ccc2N)CC1` [compound 60, 3-amino-6-(1H-imidazol-1-yl)-N-((1r,4r)-4-methoxycyclohexyl) picolinamide], 0.017 µM.
As for `Nc1ccc(-n2ccnc2)nc1C(=O)NC1CCCCC1` [compound 61, 3-amino-N-cyclohexyl-6-(1H-imidazol-1-yl)picolinamide], the IC50 was determined as 0.015 µM.
As to `O=C(Nc1cccnc1)c1ccnc(-n2ccnc2)n1` [compound 66, 2-(1H-imidazol-1-yl)-N-(pyridin-3-yl)pyrimidine-4-carboxamide], the IC50 was 0.0017 µM.
As for `CO[C@H]1CC[C@H](NC(=O)c2nc(-n3ccnc3)cnc2O)CC1` [compound 67, 3-hydroxy-6-(1H-imidazol-1-yl)-N-((1r,4r)-4-methoxycyclohexyl)pyrazine-2-carboxamide], the IC50 was > 10 µM.
To `CO[C@H]1CC[C@H](NC(=O)c2cc(-n3ccnc3)ncc2N)CC1` [compound 69, 5-amino-2-(1H-imidazol-1-yl)-N-((1r,4r)-4-methoxycyclohexyl) isonicotinamide] belongs 0.111 µM; to `CO[C@H]1CC[C@H](NC(=O)c2nc(-n3ccnc3)ccc2O)CC1` [compound 71, 3-hydroxy-6-(1H-imidazol-1-yl)-N-((1r,4r)-4-methoxycyclohexyl) picolinamide], 0.073 µM.
To `O=C(NC1CCCCC1)c1ccnc(-n2ccnc2)n1` [compound 72, N-cyclohexyl-2-(1H-imidazol-1-yl)pyrimidine-4-carboxamide] belongs 0.016 µM.
To `COc1ccc(C(=O)N[C@H]2CC[C@H](OC)CC2)nc1-n1ccnc1` [compound 74, 6-(1H-imidazol-1-yl)-5-methoxy-N-((1r,4r)-4-methoxycyclohexyl) picolinamide] belongs 4.04 µM; to `CO[C@H]1CC[C@H](NC(=O)c2nc(-n3ccnc3)ccc2Cl)CC1` [compound 75, 3-chloro-6-(1H-imidazol-1-yl)-N-((1r,4r)-4-methoxycyclohexyl) picolinamide], 0.389 µM; to `CO[C@H]1CC[C@H](NC(=O)c2ccc(C)c(-n3ccnc3)n2)CC1` [compound 76, 6-(1H-imidazol-1-yl)-N-((1r,4r)-4-methoxycyclohexyl)-5-methylpicolinamide], > 10 µM.
Regarding `CO[C@H]1CC[C@H](NC(=O)c2ccc(Cl)c(-n3ccnc3)n2)CC1` [compound 77, 5-chloro-6-(1H-imidazol-1-yl)-N-((1r,4r)-4-methoxycyclohexyl) picolinamide], the IC50 is 2.45 µM.
As for `Cc1cn(-c2cncc(C(=O)NC3CCCCC3)n2)cn1` [compound 78, N-cyclohexyl-6-(4-methyl-1H-imidazol-1-yl)pyrazine-2-carboxamide], the IC50 was > 10 µM.
Take `Cc1cncn1-c1cncc(C(=O)NC2CCCCC2)n1` [compound 79, N-cyclohexyl-6-(5-methyl-1H-imidazol-1-yl)pyrazine-2-carboxamide]: the IC50 worked out at 2.19 µM.
Turning to `Cc1nccn1-c1cncc(C(=O)NC2CCCCC2)n1` [compound 80, N-cyclohexyl-6-(2-methyl-1H-imidazol-1-yl)pyrazine-2-carboxamide], the IC50 was > 10 µM.
Regarding `O=C(Nc1ccccc1)c1cccc(-n2ccnc2)n1` [compound 81, 6-(1H-imidazol-1-yl)-N-phenylpicolinamide], the IC50 was determined as 0.015 µM.
To `O=C(Nc1ccccc1)c1ccnc(-n2ccnc2)n1` [compound 82, 2-(1H-imidazol-1-yl)-N-phenylpyrimidine-4-carboxamide] belongs 0.003 µM; to `Cc1ccccc1NC(=O)c1ccnc(-n2ccnc2)n1` [compound 83, 2-(1H-imidazol-1-yl)-N-(o-tolyl)pyrimidine-4-carboxamide], 0.132 µM.
To `O=C(Nc1ccccc1F)c1ccnc(-n2ccnc2)n1` [compound 84, N-(2-fluorophenyl)-2-(1H-imidazol-1-yl)pyrimidine-4-carboxamide] belongs 0.013 µM.
On to `O=C(Nc1ccccc1Cl)c1ccnc(-n2ccnc2)n1` [compound 85, N-(2-chlorophenyl)-2-(1H-imidazol-1-yl)pyrimidine-4-carboxamide], for which the IC50 came out at 0.029 µM.
`CO[C@H]1CC[C@H](NC(=O)c2cc(C)nc(-n3ccnc3)n2)CC1` [compound 99, 2-(1H-imidazol-1-yl)-N-((1r,4r)-4-methoxycyclohexyl)-6-methylpyrimidine-4-carboxamide]: the concentration for half-maximal inhibition (IC50) came out at 0.009 µM.
On to `CO[C@H]1CC[C@H](NC(=O)c2ccnc(-n3cccn3)n2)CC1` [compound 100, N-((1r,4r)-4-methoxycyclohexyl)-2-(1H-pyrazol-1-yl)pyrimidine-4-carboxamide], for which the IC50 came to 3.43 µM.
For `O=C(Nc1cccc(F)c1)c1cc(N2CCCCC2)nc(-n2ccnc2)n1` [compound 101, N-(3-fluorophenyl)-2-(1H-imidazol-1-yl)-6-(piperidin-1-yl)pyrimidine-4-carboxamide], the IC50 amounted to 0.017 µM.
With `O=C(Nc1cccc(F)c1)c1ccnc(-n2cccn2)n1` [compound 102, N-(3-fluorophenyl)-2-(1H-pyrazol-1-yl)pyrimidine-4-carboxamide], the IC50 is > 10 µM.
Turning to `CO[C@H]1CC[C@H](NC(=O)c2cc(C(F)(F)F)nc(-n3ccnc3)n2)CC1` [compound 103, 2-(1H-imidazol-1-yl)-N-((1r,4r)-4-methoxycyclohexyl)-6-(trifluoromethyl) pyrimidine-4-carboxamide], the IC50 stood at 0.028 µM.
Take `CO[C@H]1CC[C@H](NC(=O)c2cc(OC3CCC3)nc(-n3ccnc3)n2)CC1` [compound 104, 6-cyclobutoxy-2-(1H-imidazol-1-yl)-N-((1r,4r)-4-methoxycyclohexyl)pyrimidine-4-carboxamide]: the IC50 was found to be 0.026 µM.
With `COc1cc(C(=O)N[C@H]2CC[C@H](OC)CC2)nc(-n2ccnc2)n1` [compound 105, 2-(1H-imidazol-1-yl)-6-methoxy-N-((1r,4r)-4-methoxycyclohexyl) pyrimidine-4-carboxamide], the IC50 amounted to 0.02 µM.
`CO[C@H]1CC[C@H](NC(=O)c2cc(C#N)nc(-n3ccnc3)n2)CC1` [compound 106, 6-cyano-2-(1H-imidazol-1-yl)-N-((1r,4r)-4-methoxycyclohexyl)pyrimidine-4-carboxamide]: the IC50 amounted to 0.018 µM.
To `O=C(Nc1ccccn1)c1ccnc(-n2ccnc2)n1` [compound 112, 2-(1H-imidazol-1-yl)-N-(pyridin-2-yl)pyrimidine-4-carboxamide] belongs 0.02 µM; to `O=C(Nc1cccc(F)c1)c1cc(N2CCOCC2)nc(-n2ccnc2)n1` [compound 114, N-(3-fluorophenyl)-2-(1H-imidazol-1-yl)-6-morpholinopyrimidine-4-carboxamide], 0.005 µM; to `O=C(Nc1cccc(F)c1)c1nc(-n2ccnc2)ncc1N1CCCCC1` [compound 115, N-(3-fluorophenyl)-2-(1H-imidazol-1-yl)-5-(piperidin-1-yl) pyrimidine-4-carboxamide], 0.043 µM.
Take `O=C(Nc1cccc(F)c1)c1ccnc(-c2ccn[nH]2)n1` [compound 116, N-(3-fluorophenyl)-2-(1H-pyrazol-5-yl)pyrimidine-4-carboxamide]: the IC50 was > 10 µM.
As for `CN(C(=O)c1cc(N2CCCCC2)nc(-n2ccnc2)n1)c1cccc(F)c1` [compound 117, N-(3-fluorophenyl)-2-(1H-imidazol-1-yl)-N-methyl-6-(piperidin-1-yl)pyrimidine-4-carboxamide], the IC50 is > 10 µM.
Turning to `O=C(Nc1cccc(F)c1)c1cc(OC2CCC2)nc(-n2ccnc2)n1` [compound 121, 6-cyclobutoxy-N-(3-fluorophenyl)-2-(1H-imidazol-1-yl)pyrimidine-4-carboxamide], the IC50 came out at 0.008 µM.

What is called IC50 is the concentration that gives 50% inhibition.
